Data taken from patent US9775844B2, “Heterocyclic compounds and uses thereof” (Infinity Pharmaceuticals, Inc., priority 2014, dated 2017).

Assays:
PI3K γ = PI3K γ (Homo sapiens (Human), UniProt P48736); assay: PI3-Kinase Promega ADP-Glo Max assay; type: biochemical
Experimental: (§1) Promega ADP-Glo Max assay kit (Cat. No. V7002) was utilized to determine IC50 values for α, β, δ and γ isoforms of human Class I PI3 kinases (Millipore). […] Reactions were incubated at room temperature for 2 hours followed by addition of 25 uL of stop solution. After a 40-minute incubation at room temperature, 50 uL of Promega detection mix was added followed by incubation for 1 hour at room temperature. Plates were then read on Envision plate reader in lunimescence mode. Data was converted to % inhibition using the following equation below:
(§2) [formula] where S is the sample luminescence, Pos is a positive control without added PI3K, Neg is the negative control without added compound. Data was then plotted as % inhibition vs compound concentration.

PI3K α = PI3K α (Homo sapiens (Human), UniProt P42336); assay: PI3-Kinase Promega ADP-Glo Max assay; type: biochemical
[1] = target: PI3K-γ in RAW264.7 macrophages (Mus musculus (Mouse), UniProt Q9JHG7); assay: Raw264.7 p110 γ assay (PI3K-γ selective cellular assay, C5a-stimulated phospho-AKT); type: cell-based; conditions: for IC50: phospho-AKT, read-out: Raw264.7 p110 γ assay IC50
Text: Briefly, serum-starved RAW264.7 cells are stimulated with a known GPCR agonist C5a. […] Cells can be treated with test compounds prior to, simultaneously with, or subsequent to the stimulation by C5a. RAW 264.7 cells respond to the complement component fragment C5a through activation of the C5a receptor, and the C5a receptor activates macrophages and induces cell migration.

PI3K-δ in RAJI cells = PI3K-δ in RAJI cells (Homo sapiens (Human), UniProt O00329); assay: RAJI p110 δ assay (PI3K-δ selective cellular assay, phospho-AKT); type: cell-based; conditions: phospho-AKT; read-out: RAJI p110 δ assay IC50
PI3K δ = PI3K δ (Homo sapiens (Human), UniProt O00329); assay: PI3-Kinase Promega ADP-Glo Max assay; type: biochemical
PI3K β = PI3K β (Homo sapiens (Human), UniProt P42338); assay: PI3-Kinase Promega ADP-Glo Max assay; type: biochemical
Chain of PI3K β (P42338 whole entry): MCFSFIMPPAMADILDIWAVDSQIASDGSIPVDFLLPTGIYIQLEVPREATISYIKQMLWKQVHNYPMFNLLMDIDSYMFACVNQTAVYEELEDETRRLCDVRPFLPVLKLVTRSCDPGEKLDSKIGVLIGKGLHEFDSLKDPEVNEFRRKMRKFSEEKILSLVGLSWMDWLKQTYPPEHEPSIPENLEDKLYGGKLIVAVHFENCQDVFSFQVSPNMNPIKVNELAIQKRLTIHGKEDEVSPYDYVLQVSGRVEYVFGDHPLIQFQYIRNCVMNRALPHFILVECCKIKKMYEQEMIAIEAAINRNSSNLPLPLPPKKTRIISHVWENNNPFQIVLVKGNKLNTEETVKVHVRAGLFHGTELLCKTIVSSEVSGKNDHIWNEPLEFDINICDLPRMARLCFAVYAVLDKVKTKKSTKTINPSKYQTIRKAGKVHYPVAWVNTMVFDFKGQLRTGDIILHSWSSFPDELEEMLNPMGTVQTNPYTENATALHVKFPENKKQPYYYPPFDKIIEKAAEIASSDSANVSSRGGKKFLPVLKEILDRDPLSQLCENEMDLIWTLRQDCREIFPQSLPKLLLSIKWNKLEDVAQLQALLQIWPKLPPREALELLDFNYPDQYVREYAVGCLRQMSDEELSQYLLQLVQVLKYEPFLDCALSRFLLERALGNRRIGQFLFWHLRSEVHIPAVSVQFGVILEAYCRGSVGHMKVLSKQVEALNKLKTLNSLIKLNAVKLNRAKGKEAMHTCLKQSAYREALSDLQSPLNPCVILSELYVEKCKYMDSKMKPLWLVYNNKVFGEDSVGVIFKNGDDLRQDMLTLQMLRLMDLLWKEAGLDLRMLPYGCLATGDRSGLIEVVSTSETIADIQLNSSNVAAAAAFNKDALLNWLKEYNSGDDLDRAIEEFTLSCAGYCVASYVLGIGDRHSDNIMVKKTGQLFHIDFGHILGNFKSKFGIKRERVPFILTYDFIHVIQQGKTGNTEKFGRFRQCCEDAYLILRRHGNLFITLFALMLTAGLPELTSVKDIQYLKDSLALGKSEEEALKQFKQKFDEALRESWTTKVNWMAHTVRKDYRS
Chain of PI3K β (P27986 whole entry partner): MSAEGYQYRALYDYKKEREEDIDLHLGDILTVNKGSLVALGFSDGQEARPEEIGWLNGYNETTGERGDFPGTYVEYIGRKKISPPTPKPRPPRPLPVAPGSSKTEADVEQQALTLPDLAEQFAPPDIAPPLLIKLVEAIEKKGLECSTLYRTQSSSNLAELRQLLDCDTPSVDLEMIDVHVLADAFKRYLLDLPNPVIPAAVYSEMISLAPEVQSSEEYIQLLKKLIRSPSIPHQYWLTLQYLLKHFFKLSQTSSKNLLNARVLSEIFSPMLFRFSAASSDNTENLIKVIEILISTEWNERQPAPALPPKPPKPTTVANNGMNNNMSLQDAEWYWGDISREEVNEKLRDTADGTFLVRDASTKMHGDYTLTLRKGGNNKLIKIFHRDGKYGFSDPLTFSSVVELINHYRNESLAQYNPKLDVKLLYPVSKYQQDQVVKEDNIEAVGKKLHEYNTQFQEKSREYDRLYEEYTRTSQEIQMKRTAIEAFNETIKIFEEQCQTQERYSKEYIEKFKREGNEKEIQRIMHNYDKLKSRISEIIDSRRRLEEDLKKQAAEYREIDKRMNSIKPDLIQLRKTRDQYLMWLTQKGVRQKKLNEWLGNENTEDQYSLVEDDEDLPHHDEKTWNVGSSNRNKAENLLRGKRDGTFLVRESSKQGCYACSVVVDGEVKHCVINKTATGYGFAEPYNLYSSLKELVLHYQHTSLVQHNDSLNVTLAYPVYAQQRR
Experimental: as §1, §2

Chain of PI3K α (P42336 whole entry): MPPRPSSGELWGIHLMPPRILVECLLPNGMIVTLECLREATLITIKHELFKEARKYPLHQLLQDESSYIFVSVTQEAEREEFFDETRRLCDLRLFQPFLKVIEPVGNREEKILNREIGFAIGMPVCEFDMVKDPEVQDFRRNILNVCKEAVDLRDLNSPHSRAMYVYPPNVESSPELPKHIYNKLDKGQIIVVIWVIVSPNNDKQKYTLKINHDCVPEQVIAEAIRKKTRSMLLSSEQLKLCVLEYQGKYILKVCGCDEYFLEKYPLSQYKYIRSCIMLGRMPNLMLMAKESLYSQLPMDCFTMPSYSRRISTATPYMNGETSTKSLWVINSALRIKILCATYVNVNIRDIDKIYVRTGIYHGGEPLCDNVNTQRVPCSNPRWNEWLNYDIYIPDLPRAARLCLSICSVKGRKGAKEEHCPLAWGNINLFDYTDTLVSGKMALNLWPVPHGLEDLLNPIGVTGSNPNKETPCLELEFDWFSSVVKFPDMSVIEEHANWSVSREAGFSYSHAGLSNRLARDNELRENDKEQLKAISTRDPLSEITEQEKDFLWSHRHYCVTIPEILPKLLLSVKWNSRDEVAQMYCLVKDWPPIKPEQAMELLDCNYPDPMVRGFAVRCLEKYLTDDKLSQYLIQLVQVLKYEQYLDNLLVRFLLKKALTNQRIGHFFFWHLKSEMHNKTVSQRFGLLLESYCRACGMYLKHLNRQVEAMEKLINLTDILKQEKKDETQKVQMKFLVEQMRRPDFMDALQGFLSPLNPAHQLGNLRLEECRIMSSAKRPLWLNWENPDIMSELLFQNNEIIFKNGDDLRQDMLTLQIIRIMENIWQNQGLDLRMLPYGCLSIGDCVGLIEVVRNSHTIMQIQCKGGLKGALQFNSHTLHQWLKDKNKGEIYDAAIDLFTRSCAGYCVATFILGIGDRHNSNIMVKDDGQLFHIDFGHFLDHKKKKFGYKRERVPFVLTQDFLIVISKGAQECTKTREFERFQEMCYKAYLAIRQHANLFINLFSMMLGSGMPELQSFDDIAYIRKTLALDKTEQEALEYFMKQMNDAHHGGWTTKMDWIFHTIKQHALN
Chain of PI3K α (P27986 whole entry partner): as the sequence (P27986 whole entry partner) above
Chain of PI3K-γ in RAW264.7 macrophages (Q9JHG7 whole entry): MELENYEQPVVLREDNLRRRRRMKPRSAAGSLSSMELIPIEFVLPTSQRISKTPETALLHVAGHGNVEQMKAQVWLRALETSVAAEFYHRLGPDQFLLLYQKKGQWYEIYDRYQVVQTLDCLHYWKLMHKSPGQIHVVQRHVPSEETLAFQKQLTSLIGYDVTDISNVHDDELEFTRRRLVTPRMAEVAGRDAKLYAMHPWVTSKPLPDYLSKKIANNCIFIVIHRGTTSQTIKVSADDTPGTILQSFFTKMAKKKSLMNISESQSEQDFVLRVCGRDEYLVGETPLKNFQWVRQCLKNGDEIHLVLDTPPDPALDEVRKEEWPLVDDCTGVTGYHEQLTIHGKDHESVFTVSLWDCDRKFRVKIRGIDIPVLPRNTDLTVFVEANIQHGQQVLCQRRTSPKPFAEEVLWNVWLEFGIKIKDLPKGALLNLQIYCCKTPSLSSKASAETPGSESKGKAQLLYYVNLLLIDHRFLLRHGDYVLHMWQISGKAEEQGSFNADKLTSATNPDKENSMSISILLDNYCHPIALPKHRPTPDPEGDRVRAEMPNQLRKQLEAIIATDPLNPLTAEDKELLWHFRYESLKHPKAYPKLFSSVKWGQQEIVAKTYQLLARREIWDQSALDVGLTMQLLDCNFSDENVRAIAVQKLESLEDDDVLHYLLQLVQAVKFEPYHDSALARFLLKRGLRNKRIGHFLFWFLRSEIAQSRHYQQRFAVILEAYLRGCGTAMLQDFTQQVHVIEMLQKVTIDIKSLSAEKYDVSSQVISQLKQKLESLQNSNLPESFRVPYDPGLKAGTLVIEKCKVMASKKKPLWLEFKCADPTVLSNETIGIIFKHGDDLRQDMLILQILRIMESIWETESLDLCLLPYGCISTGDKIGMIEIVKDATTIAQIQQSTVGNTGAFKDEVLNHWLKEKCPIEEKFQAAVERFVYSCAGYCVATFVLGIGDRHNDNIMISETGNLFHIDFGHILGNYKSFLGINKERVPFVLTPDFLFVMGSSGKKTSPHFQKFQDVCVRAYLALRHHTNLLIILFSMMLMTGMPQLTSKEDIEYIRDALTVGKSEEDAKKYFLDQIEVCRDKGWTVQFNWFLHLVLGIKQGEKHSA
Chain of PI3K δ (O00329 whole entry): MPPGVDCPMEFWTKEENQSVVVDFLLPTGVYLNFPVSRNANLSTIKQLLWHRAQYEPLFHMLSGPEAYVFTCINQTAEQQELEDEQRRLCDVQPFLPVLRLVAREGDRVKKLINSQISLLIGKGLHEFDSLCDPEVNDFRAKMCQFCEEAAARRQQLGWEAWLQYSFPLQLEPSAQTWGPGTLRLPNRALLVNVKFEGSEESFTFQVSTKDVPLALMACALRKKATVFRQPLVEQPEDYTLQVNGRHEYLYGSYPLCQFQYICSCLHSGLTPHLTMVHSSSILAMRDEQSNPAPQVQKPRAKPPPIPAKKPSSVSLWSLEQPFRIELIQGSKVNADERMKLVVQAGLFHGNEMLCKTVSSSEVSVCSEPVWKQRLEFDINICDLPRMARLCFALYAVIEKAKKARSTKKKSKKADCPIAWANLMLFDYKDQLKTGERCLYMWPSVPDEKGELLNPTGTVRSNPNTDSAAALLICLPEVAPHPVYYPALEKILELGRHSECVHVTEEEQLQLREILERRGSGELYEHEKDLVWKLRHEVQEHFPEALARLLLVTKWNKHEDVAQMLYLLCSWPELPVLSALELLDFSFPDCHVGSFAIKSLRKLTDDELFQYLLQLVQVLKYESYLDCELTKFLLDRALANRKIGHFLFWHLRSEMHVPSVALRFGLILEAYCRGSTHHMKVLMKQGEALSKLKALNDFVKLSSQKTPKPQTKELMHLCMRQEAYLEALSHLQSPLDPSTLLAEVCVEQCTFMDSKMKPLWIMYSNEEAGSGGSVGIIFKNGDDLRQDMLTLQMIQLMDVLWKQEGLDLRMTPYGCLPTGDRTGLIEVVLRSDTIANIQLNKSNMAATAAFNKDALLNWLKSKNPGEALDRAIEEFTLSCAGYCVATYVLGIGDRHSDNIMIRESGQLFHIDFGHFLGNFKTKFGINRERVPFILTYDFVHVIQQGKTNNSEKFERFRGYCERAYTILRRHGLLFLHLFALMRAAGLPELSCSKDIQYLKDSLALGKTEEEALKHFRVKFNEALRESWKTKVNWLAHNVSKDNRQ
Chain of PI3K δ (P27986 whole entry partner): as the sequence (P27986 whole entry partner) above

Structure (SMILES) | IC50 (PI3K γ) [µM] | PI3K δ/PI3K γ IC50 (selectivity) (PI3K γ) | IC50 (PI3K α) [µM] | RAJIδ/Raw264.7 γ IC50 (selectivity) [1] | IC50 [1] [µM] | IC50 (PI3K-δ in RAJI cells) [µM] | IC50 (PI3K δ) [µM] | IC50 (PI3K β) [µM]
CC#Cc1cccc2nc([C@H](C)NC(=O)c3c(N)nn4cccnc34)n(-c3ccccc3)c(=O)c12 [Compound 1] | 0.001 to 0.1 | X (X = 10 to <50) | 5 to 10 | X (X = 10 to <50) | 0.001 to 0.05 | 0.001 to 0.1 | 0.5 to 1 | 1 to 5
CC(C)C#Cc1cccc2cc([C@H](C)NC(=O)c3c(N)nn4cccnc34)n(-c3ccccc3)c(=O)c12 [Compound 2] | 0.5 to 1 | X (X = 10 to <50) | 5 to 10 | Y (Y = 50 to <850) | 0.001 to 0.05 | 0.5 to 1 | 5 to 10 | 5 to 10
C[C@H](NC(=O)c1c(N)nn2cccnc12)c1cc2cccc(C#CC(C)(C)C)c2c(=O)n1-c1ccccc1 [Compound 3] | 1 to 5 | W (W = >1 to <10) | 5 to 10 | X (X = 10 to <50) | 0.05 to 0.1 | 1 to 10 | 5 to 10 | 5 to 10
C[C@H](NC(=O)c1c(N)nn2cccnc12)c1cc2cccc(C#Cc3ccccc3)c2c(=O)n1-c1ccccc1 [Compound 5] | 1 to 5 | V (V = 0.1 to 1) | 5 to 10 | W (W = >1 to <10) | 0.001 to 0.05 | 0.001 to 0.1 | 0.001 to 0.5 | 5 to 10
COc1ccc(C#Cc2cccc3cc([C@H](C)NC(=O)c4c(N)nn5cccnc45)n(-c4ccccc4)c(=O)c23)cn1 [Compound 6] | 0.1 to 0.5 | Y (Y = 50 to <850) | 5 to 10 | X (X = 10 to <50) | 0.001 to 0.05 | 0.5 to 1 | 5 to 10 | 5 to 10
C[C@H](NC(=O)c1c(N)nn2cccnc12)c1cc2cccc(C#Cc3cncn3C)c2c(=O)n1-c1ccccc1 [Compound 7] | 0.1 to 0.5 | Y (Y = 50 to <850) | 5 to 10 | Y (Y = 50 to <850) | 0.001 to 0.05 | 0.5 to 1 | 5 to 10 | 5 to 10
C[C@H](NC(=O)c1c(N)nn2cccnc12)c1cc2cccc(C#CC(C)(C)N)c2c(=O)n1-c1ccccc1 [Compound 8] | 0.5 to 1 | X (X = 10 to <50) | 5 to 10 | W (W = >1 to <10) | 0.1 to 10 | 1 to 10 | 5 to 10 | 5 to 10
C[C@H](NC(=O)c1c(N)nn2cccnc12)c1cc2cccc(C#CC3CC3)c2c(=O)n1-c1ccccc1 [Compound 9] | 0.1 to 0.5 | X (X = 10 to <50) | 1 to 5 | Y (Y = 50 to <850) | 0.001 to 0.05 | 0.1 to 0.5 | 1 to 5 | 1 to 5
C[C@H](NC(=O)c1c(N)nn2cccnc12)c1cc2cccc(C#CCN3CCOCC3)c2c(=O)n1-c1ccccc1 [Compound 10] | 0.1 to 0.5 | X (X = 10 to <50) | 5 to 10 | X (X = 10 to <50) | 0.001 to 0.05 | 1 to 10 | 5 to 10 | 5 to 10
C[C@H](NC(=O)c1c(N)nn2cccnc12)c1cc2cccc(C#CC(C)(C)O)c2c(=O)n1-c1ccccc1 [Compound 11] | 0.1 to 0.5 | X (X = 10 to <50) | 5 to 10 | X (X = 10 to <50) | 0.05 to 0.1 | 1 to 10 | 5 to 10 | 5 to 10
COCC#Cc1cccc2cc([C@H](C)NC(=O)c3c(N)nn4cccnc34)n(-c3ccccc3)c(=O)c12 [Compound 12] | 0.001 to 0.1 | X (X = 10 to <50) | 5 to 10 | X (X = 10 to <50) | 0.001 to 0.05 | 0.1 to 0.5 | 1 to 5 | 1 to 5
C[C@H](NC(=O)c1c(N)nn2cccnc12)c1cc2cccc(C#CCO)c2c(=O)n1-c1ccccc1 [Compound 13] | 0.001 to 0.1 | X (X = 10 to <50) | 5 to 10 | W (W = >1 to <10) | 0.001 to 0.05 | 0.001 to 0.1 | 0.5 to 1 | 1 to 5
C[C@H](NC(=O)c1c(N)nn2cccnc12)c1cc2cccc(C#CCN3CCCC3=O)c2c(=O)n1-c1ccccc1 [Compound 14] | 0.001 to 0.1 | X (X = 10 to <50) | 1 to 5 | W (W = >1 to <10) | 0.001 to 0.05 | 0.001 to 0.1 | 0.001 to 0.5 | 1 to 5
C[C@H](NC(=O)c1c(N)nn2cccnc12)c1cc2cccc(C#C[C@@H](C)O)c2c(=O)n1-c1ccccc1 [Compound 15] | 0.001 to 0.1 | X (X = 10 to <50) | 5 to 10 | W (W = >1 to <10) | 0.001 to 0.05 | 0.1 to 0.5 | 0.5 to 1 | 5 to 10
C[C@H](O)C#Cc1cccc2cc([C@H](C)NC(=O)c3c(N)nn4cccnc34)n(-c3ccccc3)c(=O)c12 [Compound 16] | 0.001 to 0.1 | Y (Y = 50 to <850) | 5 to 10 | X (X = 10 to <50) | 0.001 to 0.05 | 0.1 to 0.5 | 1 to 5 | 1 to 5
C[C@H](NC(=O)c1c(N)nn2cccnc12)c1cc2cccc(C#Cc3cccnc3)c2c(=O)n1-c1ccccc1 [Compound 17] | 0.1 to 0.5 | Y (Y = 50 to <850) | 5 to 10 | Y (Y = 50 to <850) | 0.001 to 0.05 | 0.1 to 0.5 | 5 to 10 | 5 to 10
COc1ncc(C#Cc2cccc3cc([C@H](C)NC(=O)c4c(N)nn5cccnc45)n(-c4ccccc4)c(=O)c23)cn1 [Compound 18] | 0.1 to 0.5 | Y (Y = 50 to <850) | 5 to 10 | X (X = 10 to <50) | 0.001 to 0.05 | 0.1 to 0.5 | 5 to 10 | 5 to 10
C[C@H](NC(=O)c1c(N)nn2cccnc12)c1nc2cccc(C#Cc3cnn(C)c3)c2c(=O)n1-c1ccccc1 [Compound 21] | – | – | 5 to 10 | – | – | 0.1 to 0.5 | 5 to 10 | 5 to 10
C[C@H](NC(=O)c1c(N)nn2cccnc12)c1cc2cccc(C#Cc3cnn(C)c3)c2c(=O)n1C1CC1 [Compound 25] | – | – | 1 to 5 | – | 0.001 to 0.05 | 0.1 to 0.5 | 5 to 10 | 1 to 5
COc1cnc(C(=O)N[C@@H](C)c2cc3cccc(C#Cc4cnn(C)c4)c3c(=O)n2-c2ccccc2)c(N)n1 [Compound 71] | > 5 | V (V = 0.1 to 1) | 5 to 10 | – | – | 1 to 10 | 5 to 10 | 5 to 10
C[C@H](NC(=O)c1c(N)nn2cccnc12)c1cc2cccc(N)c2c(=O)n1-c1ccccc1 [Compound 109, (S)-2-amino-N-(1-(8-amino-1-oxo-2-phenyl-1,2-dihydroisoquinolin-3-yl)ethyl)pyrazolo[1,5-a]pyrimidine-3-carboxamide] | 0.001 to 0.1 | X (X = 10 to <50) | 5 to 10 | – | – | – | 1 to 5 | 1 to 5
